Assay results taken from patent US9340510B2, “Tetrahydroisoquinoline derivatives, pharmaceutical compositions and uses thereof” (Boehringer Ingelheim International GmbH, priority 2014, dated 2016).

These molecules were tested against human ACC2 (Homo sapiens (Human), UniProt O00763) (assay: ACC2 assay: spectrophotometric 384 well assay (coupled lactate dehydrogenase/pyruvate kinase)). Conditions: hACC2 construct lacking the 128 N-terminal amino acids, 25° C., 340 nm.
Assay type: biochemical
Method in brief: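 N-terminally truncated human ACC2 from insect cells; ADP formation coupled via pyruvate kinase/lactate dehydrogenase, NADH loss read at 340 nm over 15 min at 25 °C, pH 7.5. Started with NADH, acetyl-CoA and 500 µM ATP; 1% DMSO. IC50 by nonlinear fit of background-subtracted slopes.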

human ACC2, sequence (O00763 129-2458): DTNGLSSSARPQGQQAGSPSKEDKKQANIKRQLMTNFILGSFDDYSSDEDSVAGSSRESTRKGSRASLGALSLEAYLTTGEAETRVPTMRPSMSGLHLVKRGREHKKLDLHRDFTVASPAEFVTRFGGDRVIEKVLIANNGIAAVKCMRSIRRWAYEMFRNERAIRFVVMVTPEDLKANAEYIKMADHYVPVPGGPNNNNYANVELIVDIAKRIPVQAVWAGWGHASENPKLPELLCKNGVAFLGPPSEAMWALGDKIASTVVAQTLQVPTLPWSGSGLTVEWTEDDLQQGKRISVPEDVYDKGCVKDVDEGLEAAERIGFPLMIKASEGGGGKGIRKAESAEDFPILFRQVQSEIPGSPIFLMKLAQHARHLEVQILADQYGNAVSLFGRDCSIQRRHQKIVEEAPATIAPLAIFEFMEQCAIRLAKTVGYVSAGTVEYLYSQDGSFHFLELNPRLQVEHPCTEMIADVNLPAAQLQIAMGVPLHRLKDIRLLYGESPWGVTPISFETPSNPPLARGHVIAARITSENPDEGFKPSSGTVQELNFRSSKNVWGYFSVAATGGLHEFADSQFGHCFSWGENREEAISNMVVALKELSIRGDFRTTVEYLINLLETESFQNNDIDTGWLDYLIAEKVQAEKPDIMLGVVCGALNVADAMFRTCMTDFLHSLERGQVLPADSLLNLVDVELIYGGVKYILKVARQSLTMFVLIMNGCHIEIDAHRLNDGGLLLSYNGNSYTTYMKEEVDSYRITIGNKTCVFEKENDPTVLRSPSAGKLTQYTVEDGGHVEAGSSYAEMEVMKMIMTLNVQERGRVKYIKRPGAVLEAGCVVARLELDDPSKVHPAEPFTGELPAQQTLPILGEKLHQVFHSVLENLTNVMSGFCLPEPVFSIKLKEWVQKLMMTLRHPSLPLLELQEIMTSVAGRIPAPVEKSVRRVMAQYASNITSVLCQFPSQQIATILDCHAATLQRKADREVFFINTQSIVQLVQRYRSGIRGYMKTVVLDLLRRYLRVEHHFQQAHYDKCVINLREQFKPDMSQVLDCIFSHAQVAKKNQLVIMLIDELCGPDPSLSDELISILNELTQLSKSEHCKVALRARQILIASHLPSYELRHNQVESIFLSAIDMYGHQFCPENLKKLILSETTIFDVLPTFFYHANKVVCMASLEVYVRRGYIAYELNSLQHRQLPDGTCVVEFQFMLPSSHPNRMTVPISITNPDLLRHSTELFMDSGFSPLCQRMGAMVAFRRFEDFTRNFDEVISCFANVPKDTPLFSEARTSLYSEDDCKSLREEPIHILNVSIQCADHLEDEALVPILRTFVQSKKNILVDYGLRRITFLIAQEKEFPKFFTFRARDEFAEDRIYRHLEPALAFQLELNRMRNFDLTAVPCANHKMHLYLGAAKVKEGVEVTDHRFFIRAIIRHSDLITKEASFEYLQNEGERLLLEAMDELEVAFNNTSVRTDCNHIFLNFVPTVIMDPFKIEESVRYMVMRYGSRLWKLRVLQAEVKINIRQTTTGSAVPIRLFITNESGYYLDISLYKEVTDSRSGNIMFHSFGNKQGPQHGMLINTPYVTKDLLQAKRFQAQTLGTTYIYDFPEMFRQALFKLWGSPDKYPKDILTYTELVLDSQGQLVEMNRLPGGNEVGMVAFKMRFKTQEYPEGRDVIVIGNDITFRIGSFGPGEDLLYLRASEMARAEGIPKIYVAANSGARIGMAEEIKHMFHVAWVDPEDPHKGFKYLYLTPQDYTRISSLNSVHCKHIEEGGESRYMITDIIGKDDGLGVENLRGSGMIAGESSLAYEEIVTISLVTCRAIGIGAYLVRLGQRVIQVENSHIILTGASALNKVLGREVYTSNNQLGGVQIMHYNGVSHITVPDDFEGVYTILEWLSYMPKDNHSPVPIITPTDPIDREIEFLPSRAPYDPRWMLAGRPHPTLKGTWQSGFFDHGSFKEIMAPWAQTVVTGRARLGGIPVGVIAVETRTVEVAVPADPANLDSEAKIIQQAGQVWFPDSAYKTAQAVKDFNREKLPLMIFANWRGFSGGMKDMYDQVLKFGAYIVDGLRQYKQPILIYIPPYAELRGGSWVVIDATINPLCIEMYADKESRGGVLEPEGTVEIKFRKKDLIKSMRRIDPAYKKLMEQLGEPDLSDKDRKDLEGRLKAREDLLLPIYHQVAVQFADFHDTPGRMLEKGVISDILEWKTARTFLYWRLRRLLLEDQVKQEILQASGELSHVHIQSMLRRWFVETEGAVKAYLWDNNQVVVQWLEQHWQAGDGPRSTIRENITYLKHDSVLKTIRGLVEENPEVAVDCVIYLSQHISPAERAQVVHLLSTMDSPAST

Row | IC50 [nM] | Structure (SMILES)
1 | 189 | CCC(=O)Nc1nc(C)c(C(=O)N[C@@H](C)c2ccc(CN3Cc4ccc(OCC5CC5)cc4C(O)C3)cc2)s1 (stereo partly drawn) [Example 3.040]
2 | 490 | C[C@H](NC(=O)C1CCC1)c1ccc(CN2Cc3ccc(OCC4CC4)cc3C(O)C2)cc1 (stereo partly drawn) [Example 3.041]
3 | 72 | C[C@H](NC(=O)C1CCC1)c1ccc(CN2Cc3ccc(OCC4CC4)cc3C(F)C2)cc1 (stereo partly drawn) [Example 3.042]
4 | 354 | C[C@H](NC(=O)C1(C#N)CC1)c1ccc(CN2Cc3ccc(OCC4CC4)cc3C(O)C2)cc1 (stereo partly drawn) [Example 3.043]
5 | 62 | C[C@H](NC(=O)C1(C#N)CC1)c1ccc(CN2Cc3ccc(OCC4CC4)cc3C(F)C2)cc1 (stereo partly drawn) [Example 3.044]
6 | 231 | CC(=O)Nc1nc(C)c(C(=O)N[C@@H](C)c2ccc(CN3Cc4ccc(OCC5CC5)cc4C(O)C3)cc2)s1 (stereo partly drawn) [Example 3.045]
7 | 56 | CC(=O)Nc1nc(C)c(C(=O)N[C@@H](C)c2ccc(CN3Cc4ccc(OCC5CC5)cc4C(F)C3)cc2)s1 (stereo partly drawn) [Example 3.046]
8 | 308 | C[C@H](NC(=O)c1cncs1)c1ccc(CN2Cc3ccc(OCC4CC4)cc3C(O)C2)cc1 (stereo partly drawn) [Example 3.047]
9 | 59 | C[C@H](NC(=O)c1cncs1)c1ccc(CN2Cc3ccc(OCC4CC4)cc3C(F)C2)cc1 (stereo partly drawn) [Example 3.048]
10 | 448 | C[C@H](NC(=O)[C@H]1C[C@H](F)C1)c1ccc(CN2Cc3ccc(OCC4CC4)cc3C(O)C2)cc1 (stereo partly drawn) [Example 3.049]
11 | 306 | C[C@H](NC(=O)[C@@H]1CC[C@H](NC(=O)OC(C)(C)C)C1)c1ccc(CN2Cc3ccc(OCC4CC4)cc3C(F)C2)cc1 (stereo partly drawn) [Example 3.050]
12 | 604 | C[C@H](NC(=O)CC#N)c1ccc(CN2Cc3ccc(OCC4CC4)cc3C(O)C2)cc1 (stereo partly drawn) [Example 3.051]
13 | 153 | C[C@H](NC(=O)[C@@H]1CCC(=O)N1)c1ccc(CN2Cc3ccc(OCC4CC4)cc3C(F)C2)cc1 (stereo partly drawn) [Example 3.052]
14 | 213 | C[C@H](NC(=O)[C@H]1CCC(=O)N1)c1ccc(CN2Cc3ccc(OCC4CC4)cc3C(F)C2)cc1 (stereo partly drawn) [Example 3.053]
15 | 245 | C[C@H](NC(=O)C1CCC(=O)O1)c1ccc(CN2Cc3ccc(OCC4CC4)cc3C(F)C2)cc1 (stereo partly drawn) [Example 3.054]
16 | 55 | C[C@H](NC(=O)C1(N)CC1)c1ccc(CN2Cc3ccc(OCC4CC4)cc3C(F)C2)cc1 (stereo partly drawn) [Example 3.055]
17 | 886 | C[C@H](NC(=O)C1CCC[C@@H]1N)c1ccc(CN2Cc3ccc(OCC4CC4)cc3C(F)C2)cc1 (stereo partly drawn) [Example 3.056]
18 | 357 | C[C@H](NC(=O)C1COCCN1)c1ccc(CN2Cc3ccc(OCC4CC4)cc3C(F)C2)cc1 (stereo partly drawn) [Example 3.057]
19 | 266 | C[C@H](NC(=O)CN)c1ccc(CN2Cc3ccc(OCC4CC4)cc3C(F)C2)cc1 (stereo partly drawn) [Example 3.058]
20 | 47 | C[C@H](NC(=O)CO)c1ccc(CN2Cc3ccc(OCC4CC4)cc3C(F)C2)cc1 (stereo partly drawn) [Example 3.059]
21 | 132 | C[C@H](O)C(=O)N[C@@H](C)c1ccc(CN2Cc3ccc(OCC4CC4)cc3C(F)C2)cc1 (stereo partly drawn) [Example 3.060]
22 | 90 | C[C@H](NC(=O)[C@@H](C)O)c1ccc(CN2Cc3ccc(OCC4CC4)cc3C(F)C2)cc1 (stereo partly drawn) [Example 3.061]
23 | 102 | C[C@H](NC(=O)C1(O)CC1)c1ccc(CN2Cc3ccc(OCC4CC4)cc3C(F)C2)cc1 (stereo partly drawn) [Example 3.062]
24 | 266 | C[C@H](NC(=O)c1cn[nH]c1)c1ccc(CN2Cc3ccc(OCC4CC4)cc3C(O)C2)cc1 (stereo partly drawn) [Example 3.063]

Row | IC50 [nM] | Structure (SMILES)
25 | 52 | C[C@H](NC(=O)c1cn[nH]c1)c1ccc(CN2Cc3ccc(OCC4CC4)cc3C(F)C2)cc1 (stereo partly drawn) [Example 3.064]
26 | 53 | C[C@H](NC(=O)C(F)(F)F)c1ccc(CN2CCc3cc(OCC4CC4(F)F)ccc3C2)cc1 (stereo partly drawn) [Example 4.002]
27 | 25 | C[C@H](NC(=O)C(F)F)c1ccc(CN2CCc3cc(OCC4CC4(F)F)ccc3C2)cc1 (stereo partly drawn) [Example 4.003]
28 | 76 | CCNC(=O)N[C@@H](C)c1ccc(CN2CCc3cc(OCC4CC4(F)F)ccc3C2)cc1 (stereo partly drawn) [Example 5.001, 1-((S)-1-{4-[6-(2,2-Difluoro-cyclopropylmethoxy)-3,4-dihydro-1H-isoquinolin-2-ylmethyl]-phenyl}-ethyl)-3-ethyl-urea]
29 | 59 | CNC(=O)N[C@@H](C)c1ccc(CN2CCc3cc(OCC4CC4(F)F)ccc3C2)cc1 (stereo partly drawn) [Example 5.002]
30 | 20 | C[C@H](NC(=O)N(C)C)c1ccc(CN2CCc3cc(OCC4CC4(F)F)ccc3C2)cc1 (stereo partly drawn) [Example 5.003]
31 | 17 | C[C@H](NC(=O)N(C)C)c1ccc(CN2Cc3ccc(OCC4CC4(F)F)cc3C(F)C2)cc1 (stereo partly drawn) [Example 5.004]
32 | 155 | C[C@H](NC(=O)N(C)C)c1ccc(CN2Cc3ccc(OCC4CC4)cc3C(O)C2)cc1 (stereo partly drawn) [Example 5.005]
33 | 872 | CCNC(=O)N[C@@H](C)c1ccc(CN2Cc3ccc(OCC4CC4)cc3C(O)C2)cc1 (stereo partly drawn) [Example 5.006]
34 | 49 | CCNC(=O)N[C@@H](C)c1ccc(CN2Cc3ccc(OCC4CC4)cc3C(F)C2)cc1 (stereo partly drawn) [Example 5.007]
35 | 369 | COC(=O)N[C@@H](C)c1ccc(CN2Cc3ccc(OCC4CC4)cc3C(O)C2)cc1 (stereo partly drawn) [Example 5.008]
36 | 116 | COC(=O)N[C@@H](C)c1ccc(CN2Cc3ccc(OCC4CC4)cc3C(F)C2)cc1 (stereo partly drawn) [Example 5.009]
37 | 173 | C[C@H](NC(=O)N(C)C)c1ccc(CN2Cc3ccc(OCC4CC4(F)F)cc3C(O)C2)cc1 (stereo partly drawn) [Example 6.002]
38 | 192 | COc1cccc2c1CCN(Cc1ccc([C@H](C)NC(C)=O)cc1)C2 [Example 7.001, N-{(S)-1-[4-(5-Methoxy-3,4-dihydro-1H-isoquinolin-2-ylmethyl)-phenyl]-ethyl}-acetamide]
39 | 104 | CC(=O)N[C@@H](C)c1ccc(CN2CCc3c(cccc3C(F)(F)F)C2)cc1 [Example 7.002]
40 | 26 | CC(=O)N[C@@H](C)c1ccc(CN2CCc3cc(OCC4CC4(F)F)ccc3C2)cc1 (stereo partly drawn) [Example 7.003]
41 | 148 | CC(=O)N[C@@H](C)c1ccc(CN2CCc3c(Br)cccc3C2)cc1 [Example 7.004]
42 | 58 | CC(=O)N[C@@H](C)c1ccc(CN2CCc3c(cccc3OC3CCC3)C2)cc1 [Example 7.005]
43 | 551 | C[C@H](NC(=O)C1CC1)c1ccc(CN2CC(=O)c3cc(OCC4CC4(F)F)ccc3C2)cc1 (stereo partly drawn) [Example 7.006]
44 | 185 | CCC(=O)N[C@@H](C)c1ccc(CN2CC(=O)c3cc(OCC4CC4(F)F)ccc3C2)cc1 (stereo partly drawn) [Example 7.007]
45 | 50 | CC(=O)N[C@@H](C)c1ccc(CN2CC(=O)c3cc(OCC4CC4(F)F)ccc3C2)cc1 (stereo partly drawn) [Example 7.009]
46 | 715 | CC(=O)N[C@@H](C)c1ccc(CN2CCc3c(cccc3C(=O)NCc3ccccc3)C2)cc1 [Example 8.001, 2-[4-((S)-1-Acetylamino-ethyl)-benzyl]-1,2,3,4-tetrahydro-isoquinoline-5-carboxylic acid benzylamide]
47 | 190 | COC(=O)C1c2ccc(OCC3CC3)cc2CCN1Cc1ccc([C@H](C)NC(C)=O)cc1 (stereo partly drawn) [Example 9.000, 2-[4-((S)-1-Acetylamino-ethyl)-benzyl]-6-cyclopropylmethoxy-1,2,3,4-tetrahydro-isoquinoline-1-carboxylic acid methyl ester]

Row | Structure (SMILES) | IC50 [nM]
48 | CCC(=O)N[C@@H](C)c1ccc(CN2CCc3cc(OCC4CC4(F)F)ccc3C2)cc1 (stereo partly drawn) [Example 4.001, N—((S)-1-{4-[6-(2,2-Difluoro-cyclopropylmethoxy)-3,4-dihydro-1H-isoquinolin-2-ylmethyl]-phenyl}-ethyl)-propionamide] | 37
